In general, IC50 refers to the point on the concentration scale where inhibition reaches its midpoint. A low value points to greater potency in that assay. As a reminder, the half-life is the time needed for the level to fall by half in the phase considered. A high value points to slow decline.

The results in this text go back to ChEMBL document CHEMBL1133363, “Discovery and evaluation of potent, tyrosine-based alpha4beta1 integrin antagonists” (Bioorg Med Chem Lett, 2000).

The structures appear in SMILES notation. Square brackets hold non-standard residues; d marks the D form. Peptide text beside a SMILES is read from it. Thz = O=C(O)[C@@H]1CSCN1

The target in series [1] is T1, Integrin alpha-4/beta-1 (Homo sapiens, UniProt P05556+P13612). Kind of series: Affinity for alpha4-beta1 integrin from HL60 cell lysate. The class given is cell-based, HL-60.
Series [2] can be described thus: Half life stability of compound was evaluated in rat plasma. It counts as ADME, organism-based.
Series [3] has as its target T1, Integrin alpha-4/beta-1. Kind of series: Inhibition of alpha4-beta1 VCAM binding in Jurkat cell adhesion assay. The class given is cell-based.
Series [4] deals with Integrin alpha-5/beta-1 (Homo sapiens, UniProt P05556+P08648). The experiment in a line: Inhibition of alpha5-beta1 integrin mediated cell adhesion. It counts as protein-complex assay.
Series [5] concerns the target Integrin alpha-V/beta-3 (Homo sapiens, UniProt P05106+P06756). Kind of series: Inhibition of alphaV-beta3 mediated cell adhesion. It counts as protein-complex assay.
The target in series [6] is Integrin alpha-M/beta-2 (Homo sapiens, UniProt P05107+P11215). The experiment in a line: Inhibition of alphaM-beta2 mediated cell adhesion. It counts as protein-complex assay.
For series [7], the target named is Intercellular adhesion molecule (ICAM-1), Integrin alpha-L/beta-2 (Homo sapiens, UniProt P05107+P05362+P20701). The experiment in a line: Inhibition of alphaL-beta2 mediated cell adhesion. It counts as protein-complex assay.
Series [8] has as its target Integrin alpha-IIb/beta-3 (Homo sapiens, UniProt P05106+P08514). Kind of series: The antagonist activity was evaluated by alphaIlb-beta3 cell assay. The class given is functional.
Series [9] addresses T2, Integrin alpha-4/beta-7 (Homo sapiens, UniProt P13612+P26010).
T2 sequence (P13612 whole entry): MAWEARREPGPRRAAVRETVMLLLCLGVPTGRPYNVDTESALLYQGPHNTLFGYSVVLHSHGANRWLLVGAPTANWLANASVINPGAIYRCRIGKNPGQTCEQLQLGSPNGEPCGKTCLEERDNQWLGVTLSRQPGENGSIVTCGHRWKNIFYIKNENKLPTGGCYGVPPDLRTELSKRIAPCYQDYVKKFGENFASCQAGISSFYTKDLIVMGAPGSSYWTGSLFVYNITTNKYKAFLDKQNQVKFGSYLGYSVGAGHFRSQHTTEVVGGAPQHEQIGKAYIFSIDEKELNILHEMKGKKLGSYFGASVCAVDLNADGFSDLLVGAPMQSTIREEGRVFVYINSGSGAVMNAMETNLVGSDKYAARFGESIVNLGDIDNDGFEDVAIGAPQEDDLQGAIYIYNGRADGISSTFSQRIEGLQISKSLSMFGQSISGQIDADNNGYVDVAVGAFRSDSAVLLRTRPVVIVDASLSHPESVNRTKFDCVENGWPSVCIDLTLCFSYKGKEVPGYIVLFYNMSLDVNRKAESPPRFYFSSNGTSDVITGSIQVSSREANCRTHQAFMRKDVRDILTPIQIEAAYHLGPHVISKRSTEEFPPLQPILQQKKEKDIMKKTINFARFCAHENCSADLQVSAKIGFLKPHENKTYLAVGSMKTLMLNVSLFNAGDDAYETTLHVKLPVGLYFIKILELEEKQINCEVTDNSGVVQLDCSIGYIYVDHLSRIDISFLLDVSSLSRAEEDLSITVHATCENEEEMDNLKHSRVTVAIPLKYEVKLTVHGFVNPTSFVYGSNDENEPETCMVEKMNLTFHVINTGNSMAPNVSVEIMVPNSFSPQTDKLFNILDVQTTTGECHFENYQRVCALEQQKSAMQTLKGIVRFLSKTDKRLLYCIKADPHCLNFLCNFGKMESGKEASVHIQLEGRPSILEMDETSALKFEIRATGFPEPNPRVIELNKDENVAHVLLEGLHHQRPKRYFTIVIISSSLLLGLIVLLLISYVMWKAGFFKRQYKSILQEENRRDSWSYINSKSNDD
T2 sequence (P26010 whole entry): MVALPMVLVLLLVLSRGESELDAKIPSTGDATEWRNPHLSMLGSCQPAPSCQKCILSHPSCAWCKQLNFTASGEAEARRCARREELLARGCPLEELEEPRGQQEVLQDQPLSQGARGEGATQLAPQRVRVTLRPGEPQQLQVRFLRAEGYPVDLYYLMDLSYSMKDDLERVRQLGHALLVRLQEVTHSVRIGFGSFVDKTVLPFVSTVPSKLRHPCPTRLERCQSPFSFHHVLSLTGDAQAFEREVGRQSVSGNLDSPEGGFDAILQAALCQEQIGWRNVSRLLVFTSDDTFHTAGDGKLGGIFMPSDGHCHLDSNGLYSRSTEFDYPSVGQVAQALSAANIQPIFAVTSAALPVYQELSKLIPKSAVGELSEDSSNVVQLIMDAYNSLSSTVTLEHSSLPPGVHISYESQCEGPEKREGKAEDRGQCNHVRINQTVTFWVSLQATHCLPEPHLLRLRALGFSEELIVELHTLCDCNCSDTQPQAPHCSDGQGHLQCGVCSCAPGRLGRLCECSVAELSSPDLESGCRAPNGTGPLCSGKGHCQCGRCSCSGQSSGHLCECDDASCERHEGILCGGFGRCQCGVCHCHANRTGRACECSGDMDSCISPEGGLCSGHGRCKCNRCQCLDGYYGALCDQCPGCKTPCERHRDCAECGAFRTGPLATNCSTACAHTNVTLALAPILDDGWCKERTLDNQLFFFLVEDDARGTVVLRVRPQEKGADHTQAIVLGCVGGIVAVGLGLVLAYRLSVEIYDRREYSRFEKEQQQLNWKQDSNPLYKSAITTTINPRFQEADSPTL
Kind of series: Inhibition of alpha4-beta7 integrin mediated cell adhesion. It counts as protein-complex assay.

T1 sequence (P05556 whole entry, one chain of several): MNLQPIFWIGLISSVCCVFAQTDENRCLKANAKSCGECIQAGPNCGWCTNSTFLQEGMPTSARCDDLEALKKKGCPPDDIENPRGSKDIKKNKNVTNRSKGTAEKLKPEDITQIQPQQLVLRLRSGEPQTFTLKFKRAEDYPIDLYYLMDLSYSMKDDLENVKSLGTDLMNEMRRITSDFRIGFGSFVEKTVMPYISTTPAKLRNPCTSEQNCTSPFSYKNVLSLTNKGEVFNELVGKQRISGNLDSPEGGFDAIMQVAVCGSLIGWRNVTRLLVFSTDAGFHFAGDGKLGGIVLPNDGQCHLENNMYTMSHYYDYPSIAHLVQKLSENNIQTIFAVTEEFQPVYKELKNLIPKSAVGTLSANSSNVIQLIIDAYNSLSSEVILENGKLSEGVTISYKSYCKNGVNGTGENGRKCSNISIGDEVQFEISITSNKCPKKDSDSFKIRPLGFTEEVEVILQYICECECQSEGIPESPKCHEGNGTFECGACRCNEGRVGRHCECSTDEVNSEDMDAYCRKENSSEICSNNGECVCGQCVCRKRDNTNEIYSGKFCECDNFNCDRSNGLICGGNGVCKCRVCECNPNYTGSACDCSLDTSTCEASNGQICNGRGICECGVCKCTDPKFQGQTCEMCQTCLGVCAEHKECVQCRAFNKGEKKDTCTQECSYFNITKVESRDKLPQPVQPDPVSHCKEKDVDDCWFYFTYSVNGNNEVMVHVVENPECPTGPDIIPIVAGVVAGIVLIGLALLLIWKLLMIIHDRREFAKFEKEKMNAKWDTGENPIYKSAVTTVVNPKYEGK
Chain of Integrin alpha-M/beta-2 (P05107 23-769 limits assumed, other chains not shown): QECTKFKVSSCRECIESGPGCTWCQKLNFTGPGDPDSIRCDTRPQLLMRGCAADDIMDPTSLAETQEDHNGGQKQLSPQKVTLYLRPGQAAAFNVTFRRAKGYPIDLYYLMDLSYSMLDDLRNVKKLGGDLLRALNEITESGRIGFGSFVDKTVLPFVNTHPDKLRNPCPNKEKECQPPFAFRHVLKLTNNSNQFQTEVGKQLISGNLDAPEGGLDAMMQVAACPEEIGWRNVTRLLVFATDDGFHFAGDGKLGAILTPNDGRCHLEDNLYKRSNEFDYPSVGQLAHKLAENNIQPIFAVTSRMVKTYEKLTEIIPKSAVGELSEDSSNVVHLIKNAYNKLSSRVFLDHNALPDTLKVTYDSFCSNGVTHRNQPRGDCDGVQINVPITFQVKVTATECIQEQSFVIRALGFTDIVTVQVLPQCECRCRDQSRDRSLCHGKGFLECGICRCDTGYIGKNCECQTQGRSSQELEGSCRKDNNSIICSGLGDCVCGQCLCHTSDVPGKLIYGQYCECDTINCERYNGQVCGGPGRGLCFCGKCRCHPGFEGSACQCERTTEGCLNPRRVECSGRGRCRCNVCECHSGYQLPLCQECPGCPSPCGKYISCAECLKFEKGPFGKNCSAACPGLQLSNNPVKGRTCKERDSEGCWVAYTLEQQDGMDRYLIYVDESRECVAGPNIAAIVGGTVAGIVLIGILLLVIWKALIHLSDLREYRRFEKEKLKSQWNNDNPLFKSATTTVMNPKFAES
Chain of Intercellular adhesion molecule (ICAM-1), Integrin alpha-L/beta-2 (P20701 whole entry): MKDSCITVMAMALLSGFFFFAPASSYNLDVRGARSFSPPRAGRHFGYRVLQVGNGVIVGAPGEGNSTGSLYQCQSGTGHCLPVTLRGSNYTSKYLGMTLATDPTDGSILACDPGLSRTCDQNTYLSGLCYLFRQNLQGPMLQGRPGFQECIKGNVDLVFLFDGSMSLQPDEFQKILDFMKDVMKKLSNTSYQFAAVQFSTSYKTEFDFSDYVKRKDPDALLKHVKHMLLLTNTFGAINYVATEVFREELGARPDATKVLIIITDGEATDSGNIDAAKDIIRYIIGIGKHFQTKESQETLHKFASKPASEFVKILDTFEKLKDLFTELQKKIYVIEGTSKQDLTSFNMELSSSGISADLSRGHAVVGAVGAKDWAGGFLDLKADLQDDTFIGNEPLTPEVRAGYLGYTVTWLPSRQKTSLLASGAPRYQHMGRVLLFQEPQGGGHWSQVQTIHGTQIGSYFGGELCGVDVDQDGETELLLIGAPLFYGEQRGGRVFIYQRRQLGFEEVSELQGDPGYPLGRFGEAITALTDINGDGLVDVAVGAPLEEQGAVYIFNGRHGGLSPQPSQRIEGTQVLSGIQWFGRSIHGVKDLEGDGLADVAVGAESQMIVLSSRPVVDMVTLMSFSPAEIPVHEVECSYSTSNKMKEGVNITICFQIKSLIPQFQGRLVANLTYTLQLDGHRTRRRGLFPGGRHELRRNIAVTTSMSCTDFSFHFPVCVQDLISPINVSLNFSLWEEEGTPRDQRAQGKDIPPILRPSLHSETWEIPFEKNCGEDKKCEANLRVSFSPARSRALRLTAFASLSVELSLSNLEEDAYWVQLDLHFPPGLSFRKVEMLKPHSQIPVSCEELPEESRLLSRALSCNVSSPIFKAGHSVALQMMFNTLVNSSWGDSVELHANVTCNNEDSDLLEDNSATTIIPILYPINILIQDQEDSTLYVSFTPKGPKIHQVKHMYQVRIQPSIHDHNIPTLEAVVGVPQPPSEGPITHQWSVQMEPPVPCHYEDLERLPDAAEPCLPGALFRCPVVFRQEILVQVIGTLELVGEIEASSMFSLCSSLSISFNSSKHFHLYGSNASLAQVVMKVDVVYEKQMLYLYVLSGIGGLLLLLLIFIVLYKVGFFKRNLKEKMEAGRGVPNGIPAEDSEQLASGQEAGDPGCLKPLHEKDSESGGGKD
Chain of Intercellular adhesion molecule (ICAM-1), Integrin alpha-L/beta-2 (P05362 whole entry): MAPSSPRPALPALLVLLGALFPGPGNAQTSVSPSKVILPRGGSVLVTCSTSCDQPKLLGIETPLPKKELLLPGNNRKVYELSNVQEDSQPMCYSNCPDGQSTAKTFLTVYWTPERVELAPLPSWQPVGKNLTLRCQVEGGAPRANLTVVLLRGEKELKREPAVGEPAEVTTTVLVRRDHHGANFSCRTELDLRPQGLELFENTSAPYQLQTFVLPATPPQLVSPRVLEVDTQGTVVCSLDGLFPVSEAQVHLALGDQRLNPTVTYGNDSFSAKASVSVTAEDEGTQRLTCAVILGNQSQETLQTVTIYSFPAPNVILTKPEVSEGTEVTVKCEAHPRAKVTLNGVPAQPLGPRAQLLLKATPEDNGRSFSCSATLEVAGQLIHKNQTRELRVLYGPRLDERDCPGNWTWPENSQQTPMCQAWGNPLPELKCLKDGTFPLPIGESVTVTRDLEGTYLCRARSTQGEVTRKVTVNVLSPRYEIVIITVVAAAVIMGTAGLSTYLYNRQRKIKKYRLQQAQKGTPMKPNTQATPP
Chain of Intercellular adhesion molecule (ICAM-1), Integrin alpha-L/beta-2 (P05107 whole entry): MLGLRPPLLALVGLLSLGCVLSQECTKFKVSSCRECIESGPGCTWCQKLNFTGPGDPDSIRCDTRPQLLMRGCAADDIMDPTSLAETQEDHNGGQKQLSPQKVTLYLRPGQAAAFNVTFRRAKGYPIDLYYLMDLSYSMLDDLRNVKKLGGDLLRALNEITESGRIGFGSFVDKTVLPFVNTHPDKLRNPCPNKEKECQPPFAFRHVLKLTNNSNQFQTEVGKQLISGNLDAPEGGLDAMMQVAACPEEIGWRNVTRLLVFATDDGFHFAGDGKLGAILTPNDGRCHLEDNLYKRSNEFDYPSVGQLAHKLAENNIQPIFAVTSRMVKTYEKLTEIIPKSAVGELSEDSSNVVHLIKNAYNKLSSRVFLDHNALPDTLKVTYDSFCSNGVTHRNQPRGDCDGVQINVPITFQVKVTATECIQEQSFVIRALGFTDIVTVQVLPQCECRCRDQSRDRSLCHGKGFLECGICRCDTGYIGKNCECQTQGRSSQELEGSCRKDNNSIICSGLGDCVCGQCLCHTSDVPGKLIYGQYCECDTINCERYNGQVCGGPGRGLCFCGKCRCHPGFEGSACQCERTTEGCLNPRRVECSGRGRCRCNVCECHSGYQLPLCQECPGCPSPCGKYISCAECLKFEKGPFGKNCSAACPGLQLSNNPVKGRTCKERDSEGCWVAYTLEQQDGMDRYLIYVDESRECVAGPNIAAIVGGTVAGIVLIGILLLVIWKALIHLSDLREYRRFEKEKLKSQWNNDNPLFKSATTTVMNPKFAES

Turning to `CC(=O)N1CSC[C@@H]1C(=O)N[C@@H](Cc1ccc(OCc2ccccc2)cc1)C(=O)O`, the IC50 in series [1] is 25 nM; in series [3], 1480 nM. This compound came in with a half-life in [2] of more than 720 min.

With `CC(=O)N1CSC[C@H]1C(=O)N[C@@H](Cc1ccccc1)C(=O)O` (Ac-[Thz]-Phe-OH), the IC50 in series [1] turned out to be 360 nM; in [3], 35200 nM.

As to `CC(=O)N1CSC[C@@H]1C(=O)N[C@@H](Cc1ccc(OCc2cc(Cl)cc(Cl)c2)cc1)C(=O)O`, the values for the 50% inhibitory concentration (IC50) in series [1] and in series [3] were 17 nM and 150 nM, respectively.

On to `CC(=O)N1CSC[C@H]1C(=O)N[C@@H](Cc1ccc(O)cc1)C(=O)O` (Ac-[Thz]-Tyr-OH), for which the figures for the IC50 in [1] and in series [3] were 2740 nM and 263000 nM, respectively.

For the compound `COc1ccc(C[C@H](NC(=O)[C@@H]2CSCN2C(C)=O)C(=O)O)cc1` (Ac-[Thz]-Tyr(Me)-OH), the figures for the IC50 in series [1] and in [3] were 310 nM and 76600 nM, respectively.

Consider `COc1cccc(OC)c1COc1ccc(C[C@H](NC(=O)[C@H]2CSCN2C(C)=O)C(=O)O)cc1`, for which the IC50 in series [1] turned out to be 2 nM; in [3], 40 nM.

For the compound `CC(=O)N1CSC[C@@H]1C(=O)N[C@@H](Cc1ccc(OC(=O)c2c(Cl)cccc2Cl)cc1)C(=O)O`, the IC50 in series [1] is 6 nM; in [3] it was 24 nM. The same compound came in with a half-life in series [2] of more than 720 min.

`CC(=O)N1CSC[C@@H]1C(=O)N[C@@H](Cc1ccc(OC(=O)C23CC4CC(CC(C4)C2)C3)cc1)C(=O)O`: the IC50 in [1] is 12 nM; in series [3] it was 140 nM. For the same compound, the half-life in series [2] is 138 min.

With `CC(=O)N1CSC[C@@H]1C(=O)N[C@@H](Cc1ccc(OCc2c(F)cccc2F)cc1)C(=O)O`, the IC50 in series [1] was 3 nM; in series [3] it was 60 nM.

On to `CC(=O)N1CSC[C@@H]1C(=O)N[C@@H](Cc1ccc(OC(=O)c2ccccc2)cc1)C(=O)O`, for which the IC50 is 4 nM in [1] and 170 nM in [3]. In addition, the half-life in series [2] is 96 min.

Take `CC(=O)N1CSC[C@H]1C(=O)N[C@@H](Cc1ccc(OCc2ccccc2)cc1)C(=O)O`: the concentration for half-maximal inhibition (IC50) in series [1] was determined as 220 nM; in series [3] it was 19500 nM.

Regarding `CC(=O)N1CSC[C@H]1C(=O)N[C@@H](CSCCCNC(=O)C12CC3CC(CC(C3)C1)C2)C(=O)O`, the IC50 came to 90 nM in [1] and 8040 nM in [3].

`CC(=O)N1CSC[C@@H]1C(=O)N[C@@H](Cc1ccc(OCc2ccccc2C(F)(F)F)cc1)C(=O)O`: the figures for the IC50 in series [1] and in series [3] were 15 nM and 170 nM, respectively.

In the case of `CC(=O)N1CSC[C@@H]1C(=O)N[C@@H](Cc1ccc(OCc2c(Cl)cc(Cl)cc2Cl)cc1)C(=O)O`, the IC50 was determined as 9 nM in series [1] and 35 nM in series [3].

In the case of `CC(=O)N1CSC[C@@H]1C(=O)N[C@@H](Cc1ccc(OCc2c(Cl)cccc2Cl)cc1)C(=O)O`, the half-inhibitory concentration (IC50) is more than 800 µM in series [4]; more than 800 µM in [5]; 5 nM in [1]; more than 400 µM in series [6]; more than 200 µM in [7]; more than 400 µM in series [8]. The IC50 in series [3] was found to be 34 nM; in [9], 190 nM. The same compound returned a half-life in [2] of more than 720 min.
